Test results as given in US20240067625A1, “SMALL-MOLECULE MODULATORS OF THE ORPHAN NUCLEAR RECEPTOR TLX” (priority 2020, published 2024).

Target: TLX LBD (Homo sapiens (Human), UniProt Q9Y466)
Assay: ALPHA screen assay for TLX LBD and coactivator peptide recruitment
Format: biochemical
Settings: Table 3; for Average ALPHA signal at 200 μM (std. dev.): mean (std. dev.)
Experimental: Assays were performed according to the manufacturer's protocol (PerkinElmer, USA), with the following modifications: Ligands were tested for TLX-coactivator binding in 50 mM phosphate buffer, 150 mM NaCl, pH 7, 1 mM DTT and 100 μM CHAPS. Ligands were dissolved and diluted in DMSO as stocks and were prepared in assay buffer from the original stock in the 100% DMSO and added to the assay plate. Biotinylated SRC peptide and polyhistidine tagged TLX LBD were diluted in assay buffer, subsequently added to respective ALPHA beads, under low light. The plates were spun down, mixed with a shaker and incubated for 120 minutes and read on a TECAN Plate reader using the manufacturer's protocol.

TLX LBD, sequence (Q9Y466 155-383): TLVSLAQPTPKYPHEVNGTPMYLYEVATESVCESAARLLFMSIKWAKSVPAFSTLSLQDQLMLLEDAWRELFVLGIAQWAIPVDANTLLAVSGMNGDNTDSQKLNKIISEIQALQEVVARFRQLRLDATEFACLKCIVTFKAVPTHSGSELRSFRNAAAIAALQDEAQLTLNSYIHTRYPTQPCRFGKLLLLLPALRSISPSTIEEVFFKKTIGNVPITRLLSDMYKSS

## COC(=O)C[C@@H]1CN(Cc2ccccc2)[C@H](C)CN1C(=O)c1cccnc1NCCC(C)C [Compound 75]
  EC50: 0.00794 nM
  Average ALPHA signal at 200 μM (std. dev.): 2.65 (0.04)

## CC(C)CCNc1ncccc1C(=O)N1CCN(CCC2CCN(C(=O)OC(C)(C)C)CC2)C[C@H]1C [Compound 53]
  EC50: 0.00904 nM
  Average ALPHA signal at 200 μM (std. dev.): 2.84 (0.05)

## CC(C)CCNc1ncccc1C(=O)N1C[C@H](CC(=O)O)N(Cc2ccccc2)[C@H](C)C1 [Compound 67]
  Average ALPHA signal at 200 μM (std. dev.): 0.97 (0.03)

## CC(C)Nc1ncccc1C(=O)N1CCN(Cc2ccccc2)[C@@H](C)C1 [Compound 90]
  Average ALPHA signal at 200 μM (std. dev.): 1.57 (0.06)

## CC(C)CCNc1ncccc1C(=O)N1CCN(Cc2ccccc2)[C@H](C)[C@H]1CC(=O)O [Compound 80]
  Average ALPHA signal at 200 μM (std. dev.): 1.11 (0.07)

## Cc1cccc(CN2CCN(C(=O)c3cccnc3NCCC(C)C)[C@H](C)C2)c1 [Compound 44]
  EC50: 0.0124 nM
  Average ALPHA signal at 200 μM (std. dev.): 3.28 (0.09)

## COC(=O)C[C@@H]1[C@H](C)N(Cc2ccccc2)CCN1C(=O)c1cccnc1NCCC(C)C [Compound 69]
  EC50: 0.0081 nM
  Average ALPHA signal at 200 μM (std. dev.): 2.53 (0.08)

## COc1cccc(CN2CCN(C(=O)c3cccnc3NCCC(C)C)[C@@H](C)C2)c1 [Compound 39]
  EC50: 0.0276 nM
  Average ALPHA signal at 200 μM (std. dev.): 3.19 (0.17)

## COC(=O)C[C@@H]1[C@@H](C)N(Cc2ccccc2)CCN1C(=O)c1cccnc1NCCC(C)C [Compound 72]
  Average ALPHA signal at 200 μM (std. dev.): 2.51 (0.10)

## Cc1ccc(CN2CCN(C(=O)c3cccnc3NCCC(C)C)[C@@H](C)C2)cc1 [Compound 33]
  EC50: 0.0187 nM
  Average ALPHA signal at 200 μM (std. dev.): 3.89 (0.21)

## CC(C)CNc1ncccc1C(=O)N1CCN(Cc2ccccc2)[C@@H](C)C1 [Compound 89]
  Average ALPHA signal at 200 μM (std. dev.): 1.98 (0.05)

## CC(C)CCNc1ncccc1C(=O)N1C[C@@H](CC(=O)O)N(Cc2ccccc2)[C@H](C)C1 [Compound 68]
  Average ALPHA signal at 200 μM (std. dev.): 1.02 (0.03)

## CC(C)CCNc1ncccc1C(=O)N1CCN(Cc2ccccn2)C[C@@H]1C [Compound 34]
  Average ALPHA signal at 200 μM (std. dev.): 1.29 (0.05)

## CC(C)CCNc1ncccc1C(=O)N1CCN(Cc2c[nH]c3ccccc23)C[C@@H]1C [Compound 42]
  Average ALPHA signal at 200 μM (std. dev.): 0.96 (0.05)

## COC(=O)C[C@H]1CN(C(=O)c2cccnc2NCCC(C)C)C[C@@H](C)N1Cc1ccccc1 [Compound 63]
  EC50: 0.0123 nM
  Average ALPHA signal at 200 μM (std. dev.): 2.72 (0.05)

## Cc1cc(C(=O)N2CCN(C(c3ccccc3)c3ccccc3)CC2)nn1C [Compound 30, reference compound]
  EC50: 0.0673 nM
  Average ALPHA signal at 200 μM (std. dev.): 1.93 (0.08)

## CC(C)CCNc1ncccc1C(=O)N1CCN(CCC2CCN(C(=O)OC(C)(C)C)CC2)C[C@@H]1C [Compound 41]
  EC50: 0.00585 nM
  Average ALPHA signal at 200 μM (std. dev.): 2.73 (0.13)

## CC(C)CCNc1ncccc1C(=O)N1CCN(Cc2ccccc2)[C@@H](C)[C@@H]1CC(=O)O [Compound 78]
  Average ALPHA signal at 200 μM (std. dev.): 1.16 (0.03)

## COC(=O)C[C@H]1[C@@H](C)N(Cc2ccccc2)CCN1C(=O)c1cccnc1NCCC(C)C [Compound 71]
  Average ALPHA signal at 200 μM (std. dev.): 2.47 (0.03)

## Cc1ccccc1CN1CCN(C(=O)c2cccnc2NCCC(C)C)[C@@H](C)C1 [Compound 31]
  EC50: 0.0138 nM
  Average ALPHA signal at 200 μM (std. dev.): 4.52 (0.06)

## CNc1ncccc1C(=O)N1CCN(Cc2ccccc2)[C@@H](C)C1 [Compound 92]
  Average ALPHA signal at 200 μM (std. dev.): 1.85 (0.10)

## CC(C)CCNc1ncccc1C(=O)N1C[C@@H](C)N(Cc2ccccc2)C[C@H]1CC(=O)O [Compound 83]
  Average ALPHA signal at 200 μM (std. dev.): 1.02 (0.03)

## CC(C)CCNc1ncccc1C(=O)N1CCN(Cc2ccc3cnccc3c2)C[C@@H]1C [Compound 40]
  EC50: 0.0529 nM
  Average ALPHA signal at 200 μM (std. dev.): 2.48 (0.02)

## CC(C)CCNc1ncccc1C(=O)N1CCN(Cc2ccccc2)C[C@@H]1CC(C)C [Compound 94]
  EC50: 0.003 nM
  Average ALPHA signal at 200 μM (std. dev.): 3.65 (0.10)
